{"source": "the NIST ThermoML archive (doi:10.1016/j.jct.2013.10.017)", "note": "Numbers after ± are expanded uncertainties.", "data": [{"experiment": "activity coefficient (dimensionless); of the first substance listed, at infinite dilution; xn = mol fraction of the nth substance listed", "settings": "313.15 K; 100 kPa; Liquid; Chromatography; x1 = 0", "values": [{"compound": "C#CCCCCCC", "note": "[1-octyne] + CCn1cc[n+](C)c1.COCCOCCOS(=O)(=O)[O-]", "activity coefficient": "16.7 ± 0.9"}, {"compound": "C1CCCC1", "note": "[cyclopentane] + CCn1cc[n+](C)c1.COCCOCCOS(=O)(=O)[O-]", "activity coefficient": "26 ± 1.5"}, {"compound": "Cc1ccccc1", "note": "[toluene] + CCn1cc[n+](C)c1.COCCOCCOS(=O)(=O)[O-]", "activity coefficient": "4.45 ± 0.27"}, {"compound": "CCCCCCCCC", "note": "[nonane] + CCn1cc[n+](C)c1.COCCOCCOS(=O)(=O)[O-]", "activity coefficient": "303 ± 14"}]}, {"experiment": "activity coefficient (dimensionless); of the first substance listed, at infinite dilution; xn = mol fraction of the nth substance listed", "settings": "323.15 K; 100 kPa; Liquid; Chromatography; x1 = 0", "values": [{"compound": "CCCO", "note": "[propan-1-ol] + CCn1cc[n+](C)c1.COCCOCCOS(=O)(=O)[O-]", "activity coefficient": "0.942 ± 0.055"}, {"compound": "C1CCCCCCC1", "note": "[cyclooctane] + CCn1cc[n+](C)c1.COCCOCCOS(=O)(=O)[O-]", "activity coefficient": "73.4 ± 4.3"}, {"compound": "CC1CCCCC1", "note": "[methylcyclohexane] + CCn1cc[n+](C)c1.COCCOCCOS(=O)(=O)[O-]", "activity coefficient": "65.8 ± 4.1"}, {"compound": "C#CCCC", "note": "[1-pentyne] + CCn1cc[n+](C)c1.COCCOCCOS(=O)(=O)[O-]", "activity coefficient": "3.98 ± 0.4"}, {"compound": "CCCCCCC", "note": "[heptane] + CCn1cc[n+](C)c1.COCCOCCOS(=O)(=O)[O-]", "activity coefficient": "147 ± 6.8"}, {"compound": "C#CCCCCC", "note": "[1-heptyne] + CCn1cc[n+](C)c1.COCCOCCOS(=O)(=O)[O-]", "activity coefficient": "10.1 ± 0.83"}, {"compound": "CO", "note": "[methanol] + CCn1cc[n+](C)c1.COCCOCCOS(=O)(=O)[O-]", "activity coefficient": "0.374 ± 0.031"}, {"compound": "CCc1ccccc1", "note": "[ethylbenzene] + CCn1cc[n+](C)c1.COCCOCCOS(=O)(=O)[O-]", "activity coefficient": "8.06 ± 0.61"}, {"compound": "C=CCCC", "note": "[1-pentene] + CCn1cc[n+](C)c1.COCCOCCOS(=O)(=O)[O-]", "activity coefficient": "26.3 ± 2"}, {"compound": "CC(C)=O", "note": "[acetone] + CCn1cc[n+](C)c1.COCCOCCOS(=O)(=O)[O-]", "activity coefficient": "1.47 ± 0.11"}, {"compound": "C=CCCCC", "note": "[hex-1-ene] + CCn1cc[n+](C)c1.COCCOCCOS(=O)(=O)[O-]", "activity coefficient": "43.4 ± 4.1"}, {"compound": "C#CCCCCCCC", "note": "[1-nonyne] + CCn1cc[n+](C)c1.COCCOCCOS(=O)(=O)[O-]", "activity coefficient": "25.7 ± 1.9"}, {"compound": "CCC(C)=O", "note": "[butanone] + CCn1cc[n+](C)c1.COCCOCCOS(=O)(=O)[O-]", "activity coefficient": "2.37 ± 0.18"}, {"compound": "C1CCCCCC1", "note": "[cycloheptane] + CCn1cc[n+](C)c1.COCCOCCOS(=O)(=O)[O-]", "activity coefficient": "54.1 ± 3.8"}, {"compound": "CCCCCCCC", "note": "[octane] + CCn1cc[n+](C)c1.COCCOCCOS(=O)(=O)[O-]", "activity coefficient": "212 ± 10"}, {"compound": "CCCCC", "note": "[pentane] + CCn1cc[n+](C)c1.COCCOCCOS(=O)(=O)[O-]", "activity coefficient": "60.8 ± 2.9"}, {"compound": "C#CCCCC", "note": "[1-hexyne] + CCn1cc[n+](C)c1.COCCOCCOS(=O)(=O)[O-]", "activity coefficient": "6.49 ± 0.56"}, {"compound": "CCCCCC", "note": "[hexane] + CCn1cc[n+](C)c1.COCCOCCOS(=O)(=O)[O-]", "activity coefficient": "94 ± 5.2"}, {"compound": "C=CCCCCCCC", "note": "[1-nonene] + CCn1cc[n+](C)c1.COCCOCCOS(=O)(=O)[O-]", "activity coefficient": "160 ± 7.1"}, {"compound": "C1CCCCC1", "note": "[cyclohexane] + CCn1cc[n+](C)c1.COCCOCCOS(=O)(=O)[O-]", "activity coefficient": "41.5 ± 3.2"}, {"compound": "CCO", "note": "[ethanol] + CCn1cc[n+](C)c1.COCCOCCOS(=O)(=O)[O-]", "activity coefficient": "0.664 ± 0.03"}, {"compound": "C=CCCCCCC", "note": "[oct-1-ene] + CCn1cc[n+](C)c1.COCCOCCOS(=O)(=O)[O-]", "activity coefficient": "107 ± 5.6"}, {"compound": "C=CCCCCC", "note": "[1-heptene] + CCn1cc[n+](C)c1.COCCOCCOS(=O)(=O)[O-]", "activity coefficient": "68.6 ± 4.8"}, {"compound": "c1ccccc1", "note": "[benzene] + CCn1cc[n+](C)c1.COCCOCCOS(=O)(=O)[O-]", "activity coefficient": "2.41 ± 0.18"}, {"compound": "C#CCCCCCC", "note": "[1-octyne] + CCn1cc[n+](C)c1.COCCOCCOS(=O)(=O)[O-]", "activity coefficient": "17.1 ± 1.3"}, {"compound": "C1CCCC1", "note": "[cyclopentane] + CCn1cc[n+](C)c1.COCCOCCOS(=O)(=O)[O-]", "activity coefficient": "24.1 ± 2"}, {"compound": "Cc1ccccc1", "note": "[toluene] + CCn1cc[n+](C)c1.COCCOCCOS(=O)(=O)[O-]", "activity coefficient": "4.51 ± 0.33"}, {"compound": "CCCCCCCCC", "note": "[nonane] + CCn1cc[n+](C)c1.COCCOCCOS(=O)(=O)[O-]", "activity coefficient": "288 ± 20"}]}, {"experiment": "activity coefficient (dimensionless); of the first substance listed, at infinite dilution; xn = mol fraction of the nth substance listed", "settings": "333.15 K; 100 kPa; Liquid; Chromatography; x1 = 0", "values": [{"compound": "CCCO", "note": "[propan-1-ol] + CCn1cc[n+](C)c1.COCCOCCOS(=O)(=O)[O-]", "activity coefficient": "0.913 ± 0.063"}, {"compound": "C1CCCCCCC1", "note": "[cyclooctane] + CCn1cc[n+](C)c1.COCCOCCOS(=O)(=O)[O-]", "activity coefficient": "68.2 ± 6.2"}, {"compound": "CC1CCCCC1", "note": "[methylcyclohexane] + CCn1cc[n+](C)c1.COCCOCCOS(=O)(=O)[O-]", "activity coefficient": "62.3 ± 5.7"}, {"compound": "C#CCCC", "note": "[1-pentyne] + CCn1cc[n+](C)c1.COCCOCCOS(=O)(=O)[O-]", "activity coefficient": "4.13 ± 0.4"}, {"compound": "CCCCCCC", "note": "[heptane] + CCn1cc[n+](C)c1.COCCOCCOS(=O)(=O)[O-]", "activity coefficient": "139 ± 6.2"}, {"compound": "C#CCCCCC", "note": "[1-heptyne] + CCn1cc[n+](C)c1.COCCOCCOS(=O)(=O)[O-]", "activity coefficient": "10.3 ± 1"}, {"compound": "CO", "note": "[methanol] + CCn1cc[n+](C)c1.COCCOCCOS(=O)(=O)[O-]", "activity coefficient": "0.369 ± 0.027"}, {"compound": "CCc1ccccc1", "note": "[ethylbenzene] + CCn1cc[n+](C)c1.COCCOCCOS(=O)(=O)[O-]", "activity coefficient": "8.17 ± 0.74"}, {"compound": "C=CCCC", "note": "[1-pentene] + CCn1cc[n+](C)c1.COCCOCCOS(=O)(=O)[O-]", "activity coefficient": "25.4 ± 2"}, {"compound": "CC(C)=O", "note": "[acetone] + CCn1cc[n+](C)c1.COCCOCCOS(=O)(=O)[O-]", "activity coefficient": "1.51 ± 0.13"}, {"compound": "C=CCCCC", "note": "[hex-1-ene] + CCn1cc[n+](C)c1.COCCOCCOS(=O)(=O)[O-]", "activity coefficient": "40.3 ± 3.2"}, {"compound": "C#CCCCCCCC", "note": "[1-nonyne] + CCn1cc[n+](C)c1.COCCOCCOS(=O)(=O)[O-]", "activity coefficient": "26.4 ± 2.4"}, {"compound": "CCC(C)=O", "note": "[butanone] + CCn1cc[n+](C)c1.COCCOCCOS(=O)(=O)[O-]", "activity coefficient": "2.42 ± 0.21"}, {"compound": "C1CCCCCC1", "note": "[cycloheptane] + CCn1cc[n+](C)c1.COCCOCCOS(=O)(=O)[O-]", "activity coefficient": "50.6 ± 5"}, {"compound": "CCCCCCCC", "note": "[octane] + CCn1cc[n+](C)c1.COCCOCCOS(=O)(=O)[O-]", "activity coefficient": "202 ± 10"}, {"compound": "CCCCC", "note": "[pentane] + CCn1cc[n+](C)c1.COCCOCCOS(=O)(=O)[O-]", "activity coefficient": "59 ± 5.1"}, {"compound": "C#CCCCC", "note": "[1-hexyne] + CCn1cc[n+](C)c1.COCCOCCOS(=O)(=O)[O-]", "activity coefficient": "6.73 ± 0.65"}, {"compound": "CCCCCC", "note": "[hexane] + CCn1cc[n+](C)c1.COCCOCCOS(=O)(=O)[O-]", "activity coefficient": "85.7 ± 7.4"}, {"compound": "C=CCCCCCCC", "note": "[1-nonene] + CCn1cc[n+](C)c1.COCCOCCOS(=O)(=O)[O-]", "activity coefficient": "149 ± 8.9"}, {"compound": "C1CCCCC1", "note": "[cyclohexane] + CCn1cc[n+](C)c1.COCCOCCOS(=O)(=O)[O-]", "activity coefficient": "38.8 ± 4.1"}, {"compound": "CCO", "note": "[ethanol] + CCn1cc[n+](C)c1.COCCOCCOS(=O)(=O)[O-]", "activity coefficient": "0.666 ± 0.029"}, {"compound": "C=CCCCCCC", "note": "[oct-1-ene] + CCn1cc[n+](C)c1.COCCOCCOS(=O)(=O)[O-]", "activity coefficient": "101 ± 8"}, {"compound": "C=CCCCCC", "note": "[1-heptene] + CCn1cc[n+](C)c1.COCCOCCOS(=O)(=O)[O-]", "activity coefficient": "65.6 ± 6.1"}, {"compound": "c1ccccc1", "note": "[benzene] + CCn1cc[n+](C)c1.COCCOCCOS(=O)(=O)[O-]", "activity coefficient": "2.48 ± 0.22"}, {"compound": "C#CCCCCCC", "note": "[1-octyne] + CCn1cc[n+](C)c1.COCCOCCOS(=O)(=O)[O-]", "activity coefficient": "17.4 ± 1.7"}, {"compound": "C1CCCC1", "note": "[cyclopentane] + CCn1cc[n+](C)c1.COCCOCCOS(=O)(=O)[O-]", "activity coefficient": "22.8 ± 1.4"}, {"compound": "Cc1ccccc1", "note": "[toluene] + CCn1cc[n+](C)c1.COCCOCCOS(=O)(=O)[O-]", "activity coefficient": "4.62 ± 0.45"}, {"compound": "CCCCCCCCC", "note": "[nonane] + CCn1cc[n+](C)c1.COCCOCCOS(=O)(=O)[O-]", "activity coefficient": "281 ± 13"}]}]}
